Source: paper PMC6616128, “Liquiritin, as a Natural Inhibitor of AKR1C1, Could Interfere With the Progesterone Metabolism” (Frontiers in Physiology, 2019)
Where a chain is given by its changes, count along the chain named. Where two headings read alike, the source gives them in different places.

Experiments:
recombinant AKR1C2 = molecular target: T1, recombinant AKR1C2 (Homo sapiens, UniProt P52895); experiment: Enzyme activity (NADPH) assay with s-tetralol, recombinant GST-AKR1C2; type: biochemical; conditions: s-tetralol 103.30 μM as substrate
T1 construct: made in house; host or cells: Escherichia coli JM109
T1 sequence (P52895 1-323): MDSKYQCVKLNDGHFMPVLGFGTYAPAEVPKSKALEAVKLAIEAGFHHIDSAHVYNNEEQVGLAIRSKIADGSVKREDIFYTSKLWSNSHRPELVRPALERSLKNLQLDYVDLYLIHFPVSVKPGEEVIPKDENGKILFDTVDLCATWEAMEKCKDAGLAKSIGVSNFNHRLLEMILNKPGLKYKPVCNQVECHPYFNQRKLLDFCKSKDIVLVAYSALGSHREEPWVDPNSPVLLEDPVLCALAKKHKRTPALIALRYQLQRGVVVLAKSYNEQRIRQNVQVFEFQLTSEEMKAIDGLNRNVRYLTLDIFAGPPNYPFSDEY
Experimental: (§1) Protein concentrations were determined using the Bradford protein assay kit.
(§2) To screen for the indicated inhibitor, the assay mixture was added with additional DMSO or 2 μM compounds. […] The inhibition patterns were determined by fitting initial velocity and inhibitor concentration into inhibition models using Graphpad Prism 6.0. All inhibition data were obtained from single experiments, with samples conducted in duplicate.
(§3) Each experiment was repeated three times and the differences among means were significant determined by Student t-text (^∗p < 0.05; ^∗∗p < 0.01; ^∗∗∗p < 0.001).

AKR1C1 [1] = molecular target: T2, AKR1C1 (Homo sapiens, UniProt Q04828); experiment: Enzyme activity (NADPH) assay with s-tetralol, recombinant GST-AKR1C1; type: biochemical; parameters: made in house; host or cells: Escherichia coli JM109;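 note: GST-fused AKR1C1 expressed in E. coli and purified by glutathione affinity, control wells received DMSO instead of compound, duplicate samples from a single experiment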
T2 sequence (Q04828 1-323): T1 sequence (P52895 1-323) with V38T, H47R, V54L, S87C, M151V, H170R, L172Q
Experimental: GST-tagged recombinant AKR1C isoforms expressed JM109 was grown in Luria-Bertani broth (100 μg⋅ml-1 ampicillin, pH = 7.0) at 37°C with orbital shaking at 220 rpm. When cells achieved an OD600 nm between 0.4 and 0.6, 0.3 mM final concentration of isopropyl β-D-1-thiogalactopyranoside (IPTG) was added to the cultures and incubated for an additional 12 h at 25°C. Cells were harvested by centrifugation at 8000 g for 10 min, and the cell pellets were stored at -80°C for storage. The pellets were resuspended in 1 × PBS, pH = 7.4 and lysed by ultrasonication at ice-cold temperature using an UH-03 union instrument. The purification of glutathione-S-transferase (GST)-fusion AKR1C1, AKR1C2, and AKR1C3 were then carried out using ÄKTA systems from GE Healthcare as described in Handbook. The recombinant proteins were eluted in 50 mM Tris–HCl (pH = 8.0) with 20 mM reduced glutathione, fresh preparedly. Protein concentrations were determined using the Bradford protein assay kit. All proteins were aliquoted and stored at -80°C containing 20% glycerol.
as §2
Firstly, we overexpressed recombinant human AKR1C in E. coli in the form of a GST-fusion protein, and then purified it by affinity chromatography on glutathione-Sepharose.
To screen for the inhibitors of AKR1C1, we developed a readily accessible indirect NADPH generating-based assay that can be used for high-throughput inhibitors screening. […] Wells were included containing enzyme and no inhibitor or 2 μM inhibitor.

recombinant AKR1C3 = molecular target: T3, recombinant AKR1C3 (Homo sapiens, UniProt P42330); experiment: biochemical
T3 sequence (P42330 1-323): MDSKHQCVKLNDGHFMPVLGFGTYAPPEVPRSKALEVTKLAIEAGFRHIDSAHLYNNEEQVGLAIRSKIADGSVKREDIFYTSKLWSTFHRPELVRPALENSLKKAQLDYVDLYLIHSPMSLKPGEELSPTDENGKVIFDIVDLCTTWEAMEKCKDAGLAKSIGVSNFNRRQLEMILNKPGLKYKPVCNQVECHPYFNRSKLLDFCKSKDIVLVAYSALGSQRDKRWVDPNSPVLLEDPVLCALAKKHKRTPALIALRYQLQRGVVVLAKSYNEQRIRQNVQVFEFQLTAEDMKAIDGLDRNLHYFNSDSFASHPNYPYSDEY
Experimental: as §1, §2, §3

AKR1C1 [2] = molecular target: T2, AKR1C1; experiment: Progesterone metabolism in HEC-1-B cells transfected with AKR1C1 plasmid; type: cell-based; parameters: expressed in transfected cells; host or cells: HEC-1-B cells; conditions: 50 μM compound, 5 μM progesterone, 6 h
Experimental: HEC-1-B cell line was purchased from the Cell Bank of the Chinese Academy of Sciences (Shanghai, China). HEC-1-B cell was cultured in DMEM (Gibco, Grand Island, New York, United States) supplemented with 10% fetal bovine serum at 37°C in a 5% CO2 incubator. In all experiments, the cells were used at passages 4 to 10. The cells were transfected with AKR1C1 plasmid using jet PRIME reagent (Polyplus) according to manufacturer’s instructions. […] The culture media were collected immediately and 6 h later. […] A LC-20A High Performance liquid chromatography (Shimadzu, Japan) with UV detector was used for analyzing progesterone cultured from the cells. […] The mobile phase used was a mixture of mobile phase A and mobile phase B in an isocratic program as 3:7 running on an Agilent HC C18 column (150 mm × 4.6 mm, 5 μm particle size) at a constant temperature of 35°C. The flow rate was 1.0 mL/min and the detection wavelength was 245 nm. The whole analytical period was 10 min for each sample. The standard (progesterone) was dissolved in methanol. […]
Therefore, we choose to transfect cells with AKR1C1 gene for cellular study. […] Each experiment was repeated three times and the differences among means were significant determined by Student t-text (^∗p < 0.05; ^∗∗p < 0.01; ^∗∗∗p < 0.001).

O=C1C[C@@H](c2ccc(O[C@@H]3O[C@H](CO)[C@@H](O)[C@H](O)[C@H]3O)cc2)Oc2cc(O)ccc21 [Liquiritin]
IC50 (recombinant AKR1C2): 0.61 ± 0.05 µM
remaining activity at 2 µM (AKR1C1 [1]; 2 μM compound, Figure 1A, read-out: % Enzyme Activity): 31%
slope (AKR1C1 [1]; 2 μM compound, Supplementary Table 1, CON 0.0122): 0.003777
enzyme activity (AKR1C1 [1]; 2 μM compound, Supplementary Table 1, CON 192.295568): 59.5351 nmol/min/mg
remaining activity at 2 µM (AKR1C1 [1]; 2 μM compound, Supplementary Table 1, CON = 1, read-out: ratio (activity relative to CON)): 31%
inhibition at 2 µM (AKR1C1 [1]; 2 μM compound, Supplementary Table 1, read-out: % inhibition): 69%
inhibition at 2 µM (AKR1C1 [1]; 2 μM compound, text on Figure 1A, read-out: inhibitory effect over AKR1C1 enzyme activity (% inhibition)): 34%
inhibition pattern (AKR1C1 [1]; s-tetralol concentration variation): competitive inhibitor
IC50 ratio 1C1/1C2 (AKR1C1 [1]; selectivity AKR1C1 vs AKR1C2): 1.03
IC50 ratio 1C1/1C3 (AKR1C1 [1]; selectivity AKR1C1 vs AKR1C3): 0.17
IC50 (recombinant AKR1C3): 3.72 ± 0.09 µM
inhibition at 50 µM (AKR1C1 [2]): 85%
